Reference: US20080076824A1, “Compounds That Inhibit Replication Of Human Immunodeficiency Virus” (priority 2004, published 2008)
Several values for one entry are separate records, joined by “and”; a condition that tells them apart may be missing. Equal values may be shown once. Where a name gives a salt, the structure may show the parent alone.

Test: Microdose study of 14C-AlphaHGA in healthy volunteers, plasma pharmacokinetics (AMS)
Format: in vivo, human
Settings: plasma
Description: In this example, the pharmacokinetics (PK) and oral bioavailability of AlphaHGA in adult healthy volunteers following a single ‘microdose’ in a sequence-randomized, cross-over study design (two periods 7 days apart) was determined. Clinical experiments were conducted with low-level radiolabelled (^14C) AlphaHGA administered intravenously (IV) orally (PO) with serial blood and urine samples were collected for concentration analysis utilizing accelerator mass spectrometry (AMS).
Accordingly, eight subjects were enrolled into a single dose cross-over study. The subjects were randomly assigned to one of two administration sequences. Subjects that were assigned to sequence 1 received AlphaHGA as an oral preparation first (Period 1) followed by the intravenous (IV) preparation 1 week later (Period 2). Subjects assigned to sequence 2 received AlphaHGA as an intravenous preparation first followed by the oral preparation 1 week later. Four subjects were assigned to sequence 1 and four subjects were assigned to sequence 2.
For both oral and IV doses subjects were administered 100 nCi (3.7 Kbq) of alphaHGA, which was determined to contain 1.602888×10ˆ6 fmol of ^14C. The specific activity of each dose was 46.619 MBq/mol (or 1.260 mCi/mol). A stock blend of ^14C-labelled alphaHGA was produced prior to the first study period. The actual formulations used for dosing were prepared on the morning prior to each study period. The infusion was a single bolus injection with both the infusion and flush were completed in less than 30 seconds.
Blood (5 ml) was collected following the administration of AlphaHGA orally or as an IV bolus at the following times: pre-dose (T=0) and 15, 30, 45, 60 minutes, and at 2, 3, 4, 6, 8, 10, 12, 16, 24 hours post-dose. All of the 224 scheduled blood samples were obtained. Blood specimens were drawn by intravenous in-dwelling catheter into 2×10 mL EDTA containing Vacutainer tubes and RBC's separated by centrifugation.
Plasma specimens (30 μL) were analyzed directly via the combustive procedure without further chemical manipulation. For the purposes of calculating ^14C concentration per volume of plasma, a general carbon content of 45% (dry mass) was applied. The urine was mixed with equal volumes (0.5 mL) of a sucrose carbon diluent solution (200 g/L) and mixed by inversion in a disposable polypropylene centrifuge tube. A 20-μL sample was graphitized for AMS analysis according to standard procedures. The mass fraction of the urine represented in the measured sample was inverted and multipled by the ^14C contents above background derived from the AMS measurement to calculate the ^14C content in the total urine void. A density value of 1 g/mL for urine was assumed to calculate its volume from the recorded masses.
Pharmacokinetic parameters were estimated by noncompartmental analysis employing the PK software WinNonlin version 4.1 (Pharsight Corporation, Palo Alto, Calif.). Statistical analyses were performed using either WinNonlin 4.1 or SPlus 2000 (Insightful Inc, Seattle, Wash.). All parameter calculations are reported from observed values and not from predicted values. However, observed and predicted values were very close and parameter estimates from both approaches were nearly equal.
. Values for the following PK parameters were estimated from plasma alphaHGA concentrations:
Maximum observed concentration (Cmax) and the time to reach Cmax (Tmax), the last quantified concentration (Clast), the time to Clast (Tlast), and time to the first quantified concentration (Tfirst) came from the experimentally observed values.
Terminal elimination rate constant (λz), was estimated from log-linear regression analysis of the apparent terminal phase of the plasma concentration-time profile. Weighting for the regression was 1/Y^2. The associated plasma half-life (T½) was calculated as T½=ln 2/λz. The point employed for estimating λz, were selected by the WinNonlin default curve stripping algorithm. […]

[1] = route iv, individual subjects 1-8, period 1 or 2
[2] = route iv, individual subjects 1-8, period 1 or 2, hydrochloride
[3] = route po, individual subjects 1-8, period 1 or 2, hydrochloride

NC(=O)C(N)O (stereo not drawn) [AlphaHGA, α-Hydroxy-glycinamide hydrochloride]
Tmax (Route iv, Max): 0.50 h | AUC % Extrap (Route iv, Mean): 14.04% | AUCTmax (Route iv, Mean): 0.00876 nM·h | AUCinf (Route iv, Mean): 0.36141 nM·h | AUClast (Route iv, Mean): 0.31056 nM·h | Az (Route iv, Mean): 0.070 h⁻¹ | Clast (Route iv, Mean): 0.00343 nM | Cmax (Route iv, Mean): 0.0544 nM | T ½ (Route iv, Mean): 10.11 h | Tmax (Route iv, Mean): 0.28 h | AUC % Extrap (Route iv, Min): 9.23% | AUCTmax (Route iv, Min): 0.00422 nM·h | AUCinf (Route iv, Min): 0.27962 nM·h | AUClast (Route iv, Min): 0.24083 nM·h | Az (Route iv, Min): 0.054 h⁻¹ | Clast (Route iv, Min): 0.00267 nM | Cmax (Route iv, Min): 0.0337 nM | T ½ (Route iv, Min): 8.26 h | Tmax (Route iv, Min): 0.25 h | AUC % Extrap (Route po, Max): 16.54% | AUCTmax (Route po, Max): 0.04903 nM·h | AUCinf (Route po, Max): 0.4907 nM·h | AUClast (Route po, Max): 0.46442 nM·h | Az (Route po, Max): 0.118 h⁻¹ | Clast (Route po, Max): 0.00459 nM | Cmax (Route po, Max): 0.076 nM | T ½ (Route po, Max): 11.29 h | Tmax (Route po, Max): 2.00 h | AUC % Extrap (Route po, Mean): 13.07% | AUCTmax (Route po, Mean): 0.02176 nM·h | AUCinf (Route po, Mean): 0.37884 nM·h | AUClast (Route po, Mean): 0.33063 nM·h | Az (Route po, Mean): 0.076 h⁻¹ | Clast (Route po, Mean): 0.00353 nM | Cmax (Route po, Mean): 0.0507 nM | T ½ (Route po, Mean): 9.40 h | Tmax (Route po, Mean): 0.81 h | AUC % Extrap (Route po, Min): 5.36% | AUCTmax (Route po, Min): 0.01199 nM·h | AUCinf (Route po, Min): 0.31704 nM·h | AUClast (Route po, Min): 0.26699 nM·h | Az (Route po, Min): 0.061 h⁻¹ | Clast (Route po, Min): 0.00286 nM | Cmax (Route po, Min): 0.0357 nM | T ½ (Route po, Min): 5.88 h | Tmax (Route po, Min): 0.50 h | Tfirst [1]: 0.25 h | Tlast [1]: 24 h | AUCTmax [2]: 0.00422 nM·h and 0.00683 nM·h and 0.00902 nM·h and 0.00647 nM·h and 0.02396 nM·h and 0.00615 nM·h and 0.00528 nM·h and 0.00813 nM·h | AUCinf [2]: 0.27962 nM·h and 0.32862 nM·h and 0.36703 nM·h and 0.32974 nM·h and 0.43166 nM·h and 0.35514 nM·h and 0.39463 nM·h and 0.40482 nM·h | AUClast [2]: 0.24083 nM·h and 0.29153 nM·h and 0.32782 nM·h and 0.29111 nM·h and 0.39184 nM·h and 0.28587 nM·h and 0.32585 nM·h and 0.32966 nM·h | Clast [2]: 0.00267 nM and 0.00304 nM and 0.00292 nM and 0.00299 nM and 0.00334 nM and 0.00375 nM and 0.00462 nM and 0.0041 nM | Cmax [2]: 0.0337 nM and 0.0546 nM and 0.0722 nM and 0.0517 nM and 0.0668 nM and 0.0492 nM and 0.0422 nM and 0.065 nM | T1/2 [2]: 10.07 h and 8.46 h and 9.31 h and 8.96 h and 8.26 h and 12.80 h and 10.32 h and 12.71 h | Tmax [2]: 0.25 h and 0.5 h | λz [2]: 0.069 h⁻¹ and 0.082 h⁻¹ and 0.075 h⁻¹ and 0.077 h⁻¹ and 0.084 h⁻¹ and 0.054 h⁻¹ and 0.067 h⁻¹ and 0.055 h⁻¹ | Tlast (route po, individual subjects 1-8, period 1 or 2): 24 h | AUCTmax [3]: 0.0122 nM·h and 0.03149 nM·h and 0.01712 nM·h and 0.04903 nM·h and 0.02379 nM·h and 0.01199 nM·h and 0.01353 nM·h and 0.01489 nM·h | AUCinf [3]: 0.32094 nM·h and 0.4907 nM·h and 0.31704 nM·h and 0.41499 nM·h and 0.40394 nM·h and 0.32388 nM·h and 0.3913 nM·h and 0.36795 nM·h | AUClast [3]: 0.28221 nM·h and 0.46442 nM·h and 0.26699 nM·h and 0.34636 nM·h and 0.34963 nM·h and 0.27076 nM·h and 0.34145 nM·h and 0.32318 nM·h | Clast [3]: 0.00286 nM and 0.0031 nM and 0.00341 nM and 0.00459 nM and 0.00395 nM and 0.00326 nM and 0.00376 nM and 0.0033 nM | Cmax [3]: 0.0406 nM and 0.076 nM and 0.0357 nM and 0.0392 nM and 0.0494 nM and 0.0479 nM and 0.0581 nM and 0.0584 nM | T1/2 [3]: 9.39 h and 5.88 h and 10.18 h and 10.36 h and 9.53 h and 11.29 h and 9.19 h and 9.40 h | Tfirst [3]: 0.25 hr (7×) and 0.5 hr | Tmax [3]: 0.5 h and 0.75 h and 1 h and 2 h | λz [3]: 0.074 hr^−1 (2×) and 0.118 hr^−1 and 0.068 hr^−1 and 0.067 hr^−1 and 0.073 hr^−1 and 0.061 hr^−1 and 0.075 hr^−1
